In patent US9193736B2, “PDE 10a inhibitors for the treatment of type II diabetes” (Janssen Pharmaceutica, NV, priority 2013, dated 2015):
Where a name gives a salt, the structure may show the parent alone.

Columns and labels:
[1] = biological target: Rat recombinant PDE10a (rPDE10a) (Rattus norvegicus (Rat), UniProt Q9QYJ6); assay: In vitro assay PDE10a: rat recombinant PDE10a SPA with 3H-cAMP substrate, IC50; type: biochemical; conditions: 60 nM cAMP, read-out: rPDE10a2 IC50
Summary of the method: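 Enzyme expressed in Sf9 cells via baculovirus and Ni-sepharose purified; reaction with 3H-cAMP ran 60 min at rt, stopped with PDE SPA beads. Compounds diluted in DMSO at 100-fold final concentration; blanks omitted enzyme.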

[2] = biological target: Human recombinant PDE10A2 (Homo sapiens (Human), UniProt Q9Y233); assay: In vitro hPDE10a: human recombinant PDE10A2 scintillation proximity assay, IC50; type: biochemical; conditions: human recombinant PDE10A2, SPA, 60 nM cAMP; read-out: hPDE10a2 IC50
Summary of the method: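 Purified recombinant human PDE10A2 (Ni-sepharose) was assayed by SPA, counting [3H]-AMP product captured on yttrium silicate beads added in zinc sulphate stop solution. Inhibition was expressed as % of activity without compound, with a no-enzyme low control. Repeat data points were aggregated.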

[3] = PDE10a perfused brain permeability study: plasma concentrations at 30 and 120 min, brain concentration at 120 min, brain/plasma ratio; conditions: for concentration at 2 h / Kp at 2 h: male, Sprague-Dawley, rat; for Kp at 2 h: brain/plasma
Experimental: PDE10a-Brain Permeability Assay
A. PDE10a-Perfused Brain Permeability Study Protocol
Drug administration by oral gavage, subcutaneous injection or intravenous was carried out using male Sprague Dawley rats under IACUC protocol (SH-MET3010). Male Sprague Dawley rats (Charles River) ˜300-350 g were maintained on a 4% standard rodent diet (Test Diet 5001). They are allowed ad libitum access to water and food. Room temperature was maintained at 64° F. and humidity at 30-70%.
Three animals per compound were provided a dose of 2 mg/mL in 20% HpbCD/Tris pH 8 by tail i.v. or 30 mpk p.o. or s.c. in 20% HpbCD/Tris pH 8, with PDE10a antagonists. A first blood sample was collected at 30 min via retro-orbital sinus (anesthetic by 70% CO2/30% O2) into heparinzed plasma separator tubes. The blood was centrifuged and 100 μL plasma was placed into a 96 well plate and saved on dry ice.
After the 120 min, the final blood sample was collected via retro-orbital sinus under anesthesia by IP 0.5 cc injection of a 4/1 mixture of Ketaset: AnaSed [(prepared 10 mL Ketaset (100 mg/mL Ketamine)+2.5 mL AnaSed (20 mg/mL Xylazine)]. The rats were then perfused with 400 mL heparinized saline (10,000 units/L) through the left ventricle of the heart; the brains were then removed (not including the medulla), weighed and homogenized in PBS (4 mL/g tissue). The samples were stored at −80° C. and submitted for chemical analysis of blood and brain concentrations. Endpoints of sample analysis consists of the plasma concentrations at 30 and 120 min, plus brain concentrations at 120 min.

[4] = male Sprague Dawley rats, 2 h, perfused or non-perfused brain

Sequence of Rat recombinant PDE10a (rPDE10a) (Q9QYJ6 whole entry): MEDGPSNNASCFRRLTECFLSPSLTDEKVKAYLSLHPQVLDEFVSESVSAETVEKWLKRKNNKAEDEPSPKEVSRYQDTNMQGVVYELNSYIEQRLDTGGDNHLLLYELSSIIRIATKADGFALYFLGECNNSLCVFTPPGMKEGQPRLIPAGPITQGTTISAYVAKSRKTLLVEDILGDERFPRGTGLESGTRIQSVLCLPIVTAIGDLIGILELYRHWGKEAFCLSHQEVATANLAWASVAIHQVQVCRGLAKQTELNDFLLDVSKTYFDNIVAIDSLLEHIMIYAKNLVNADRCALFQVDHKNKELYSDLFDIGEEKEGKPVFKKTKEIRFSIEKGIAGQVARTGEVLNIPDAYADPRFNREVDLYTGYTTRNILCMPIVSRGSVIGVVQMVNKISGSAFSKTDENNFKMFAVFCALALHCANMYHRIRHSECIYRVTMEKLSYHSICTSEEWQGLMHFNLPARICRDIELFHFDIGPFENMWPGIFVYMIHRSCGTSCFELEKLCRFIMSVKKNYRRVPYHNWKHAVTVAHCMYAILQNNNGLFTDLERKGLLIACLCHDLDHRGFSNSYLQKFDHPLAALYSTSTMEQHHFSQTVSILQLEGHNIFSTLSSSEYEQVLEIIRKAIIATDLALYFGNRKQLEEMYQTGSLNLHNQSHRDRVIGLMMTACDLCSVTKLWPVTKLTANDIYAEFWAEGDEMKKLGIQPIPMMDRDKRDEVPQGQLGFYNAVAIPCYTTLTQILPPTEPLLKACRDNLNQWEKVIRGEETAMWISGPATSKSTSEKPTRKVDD
Sequence of Human recombinant PDE10A2 (Q9Y233 267-1055): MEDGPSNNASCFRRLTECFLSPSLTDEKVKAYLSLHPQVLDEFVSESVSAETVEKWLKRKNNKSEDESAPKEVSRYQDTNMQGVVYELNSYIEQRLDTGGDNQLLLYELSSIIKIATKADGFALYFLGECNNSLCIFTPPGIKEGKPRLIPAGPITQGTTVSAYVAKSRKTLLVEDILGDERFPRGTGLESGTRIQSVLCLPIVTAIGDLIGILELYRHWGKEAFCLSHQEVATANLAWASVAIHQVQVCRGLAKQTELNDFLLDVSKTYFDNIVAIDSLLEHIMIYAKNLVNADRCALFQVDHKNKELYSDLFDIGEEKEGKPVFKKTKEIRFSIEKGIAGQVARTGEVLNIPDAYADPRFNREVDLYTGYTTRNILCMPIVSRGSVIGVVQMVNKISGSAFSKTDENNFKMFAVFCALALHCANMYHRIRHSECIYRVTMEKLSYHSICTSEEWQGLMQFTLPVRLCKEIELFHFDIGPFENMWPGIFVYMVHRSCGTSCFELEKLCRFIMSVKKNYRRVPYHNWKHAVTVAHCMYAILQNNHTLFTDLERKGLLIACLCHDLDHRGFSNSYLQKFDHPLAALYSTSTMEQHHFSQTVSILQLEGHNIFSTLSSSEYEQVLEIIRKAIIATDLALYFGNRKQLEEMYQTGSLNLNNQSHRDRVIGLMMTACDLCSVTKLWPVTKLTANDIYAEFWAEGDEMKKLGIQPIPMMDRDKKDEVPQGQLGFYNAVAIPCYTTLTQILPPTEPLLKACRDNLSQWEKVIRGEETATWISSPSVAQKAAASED

IC50 [1] [nM] | IC50 [2] [nM] | concentration at 2 h ([3]; brain) [ng/g] | Kp at 2 h [3] | concentration at 2 h ([3]; plasma) [ng/mL] | Brain conc 2 h [3, 4] [ng/g] | Ratio Br/Pl Mean 2 h [3, 4] | Plasma conc 2 h ([3]; male Sprague Dawley rats, 2 h, perfused or non-perfused brain study) [ng/mL] | SMILES
8 | 10 | 14.5 | 0.01 | 1610 | – | – | – | Oc1nc(O)c(-c2ccc(-c3c(/C=C/c4ccc5ccccc5n4)nc4c(N5CCOCC5)ccnn34)cc2)o1 [Cpd 65, 5-(4-{8-Morpholin-4-yl-2-[(E)-2-quinolin-2-ylethenyl]imidazo[1,2-b]pyridazin-3-yl}phenyl)-1,3-oxazole-2,4-diol]
13 | 13 | 34.7 | 0.04 | 857 | – | – | – | Cn1nc(-c2ccc(-c3c(/C=C/c4ccc5ccccc5n4)nc4c(N5CCOCC5)ccnn34)cc2)nc1O [Cpd 74, (E)-2-Methyl-5-(4-(8-morpholino-2-(2-(quinolin-2-yl)vinyl)imidazo[1,2-b]pyridazin-3-yl)phenyl)-2H-1,2,4-triazol-3-ol]
6 | 3 | 60.7 | 0.02 | 2840 | – | – | – | O=C(O)C1CCN(c2ccc(-c3c(/C=C/c4ccc5ccccc5n4)nc4c(N5CCOCC5)ccnn34)cc2)CC1 [Cpd 100, (E)-1-(4-(8-Morpholino-2-(2-(quinolin-2-yl)vinyl)imidazo[1,2-b]pyridazin-3-yl)phenyl)piperidine-4-carboxylic acid trifluoroacetic acid salt]
5 | 5 | 0 | 0 | 314 | – | – | – | O=C(O)CCc1ccc(-c2c(/C=C/c3ccc4ccccc4n3)nc3c(N4CCOCC4)ccnn23)cc1 [Cpd 128, 3-(4-{8-Morpholin-4-yl-2-[(E)-2-quinolin-2-ylethenyl]imidazo[1,2-b]pyridazin-3-yl}phenyl)propanoic acid]
6 | 9 | 0 | 0 | 35 | – | – | – | O=C(O)CCC(=O)Nc1ccc(-c2c(/C=C/c3ccc4ccccc4n3)nc3c(N4CCOCC4)ccnn23)cc1 [compound 48, (E)-4-((4-(8-Morpholino-2-(2-(quinolin-2-yl)vinyl)imidazo[1,2-b]pyridazin-3-yl)phenyl)amino)-4-oxobutanoic acid]
2 | 2 | 1.69 | 0.005 | 438 | – | – | – | CS(=O)(=O)NC(=O)c1ccc(-c2c(/C=C/c3ccc4ccccc4n3)nc3c(N4CCOCC4)ccnn23)cn1 [Cpd 27, (E)-N-(Methylsulfonyl)-5-(8-morpholino-2-(2-(quinolin-2-yl)vinyl)imidazo[1,2-b]pyridazin-3-yl)picolinamide trifluoroacetic acid salt]
– | – | 117 | 0.17 | 788 | – | – | – | C(=C\c1nc2c(N3CCOCC3)ccnn2c1-c1ccc(Sc2nnc[nH]2)nc1)/c1ccc2ccccc2n1 [Cpd 22, (E)-2-(2-(3-(6-(4H-1,2,4-Triazol-3-ylthio)pyridin-3-yl)-8-morpholinoimidazo[1,2-b]pyridazin-2-yl)vinyl)quinoline]
2 | 2 | – | – | – | – | – | – | O=C(O)c1ccc(-c2c(/C=C/c3ccc4ccccc4n3)nc3c(N4CCOCC4)ccnn23)nc1 [compound 113, (E)-6-(8-Morpholino-2-(2-(quinolin-2-yl)vinyl)imidazo[1,2-b]pyridazin-3-yl)nicotinic acid]

The next lines start with the compound.

SMILES | IC50 [1] [nM] | IC50 [2] [nM] | concentration at 2 h ([3]; brain) [ng/g] | Kp at 2 h [3] | concentration at 2 h ([3]; plasma) [ng/mL] | Brain conc 2 h [3, 4] [ng/g] | Ratio Br/Pl Mean 2 h [3, 4] | Plasma conc 2 h ([3]; male Sprague Dawley rats, 2 h, perfused or non-perfused brain study) [ng/mL]
O=C(Nc1nc2c(N3CCOCC3)ccnn2c1-c1ccc(N2CCNCC2)nc1)c1ccc2ccccc2n1 [Cpd 8, N-(8-Morpholino-3-(6-(piperazin-1-yl)pyridin-3-yl)imidazo[1,2-b]pyridazin-2-yl)quinoline-2-carboxamide trifluoroacetic acid salt] | 813 | 603 | 38.8 | 1.16 | 33.7 | – | – | –
O=C(O)c1ccc(-c2c(/C=C/c3ccc4c(n3)CCCC4)nc3c(N4CCOCC4)ccnn23)cc1 [Cpd 76, (E)-4-(8-Morpholino-2-(2-(5,6,7,8-tetrahydroquinolin-2-yl)vinyl)imidazo[1,2-b]pyridazin-3-yl)benzoic acid] | 7 | 5 | 9.3 | 0.02 | 568 | – | – | –
CS(=O)(=O)NC(=O)c1ccc(-c2c(C#Cc3ccc4ccccc4n3)nc3c(N4CCOCC4)ccnn23)cn1 [Cpd 28, N-(Methylsulfonyl)-5-(8-morpholino-2-(quinolin-2-ylethynyl)imidazo[1,2-b]pyridazin-3-yl)picolinamide] | 1 | 1 | 0.95 | 0.01 | 136 | – | – | –
c1ccc2nc(SCc3nc4c(N5CCOCC5)ccnn4c3-c3ccc(N4CCNCC4)nc3)ccc2c1 [Cpd 6, 4-(3-(6-(piperazin-1-yl)pyridin-3-yl)-2-((quinolin-2-ylthio)methyl)imidazo[1,2-b]pyridazin-8-yl)morpholine trifluoroacetic acid salt] | 25 | 20 | 52 | 0.39 | 135 | – | – | –
O=C(O)C(F)(F)F.O=C(O)CN1CCC(c2c(C#Cc3ccc4ccccc4n3)nc3c(N4CCOCC4)ccnn23)CC1 [Cpd 25, 2-(4-(8-Morpholino-2-(quinolin-2-ylethynyl)imidazo[1,2-b]pyridazin-3-yl)piperidin-1-yl)acetic acid trifluoroacetic acid salt] | – | – | – | – | – | 0 | 0 | 5.77
O=C(O)C1CCN(c2ccc(-c3c([C@H]4C[C@H](c5ccc6ccccc6n5)C4)nc4c(N5CCOCC5)ccnn34)cc2)CC1 [compound 168, 1-(4-(8-Morpholino-2-((1r,3r)-3-(quinolin-2-yl)cyclobutyl)imidazo[1,2-b]pyridazin-3-yl)phenyl)piperidine-4-carboxylic acid] | – | 2 | 30.1 | 0.02 | 1200 | – | – | –
O=C(O)c1ccc(-c2c([C@H]3C[C@H](c4ccc5ccccc5n4)C3)nc3c(N4CCOCC4)ccnn23)cc1 [compound 164, 4-(8-Morpholino-2-((1r,3r)-3-(quinolin-2-yl)cyclobutyl)imidazo[1,2-b]pyridazin-3-yl)benzoic acid trifluoroacetic acid salt] | – | < 1 | 0 | 0 | 162 | – | – | –
CCN(CC)c1ccc(-c2c(COc3ccc4ccccc4n3)nc3c(N4CCOCC4)ccnn23)cn1 [Cpd 7, N,N-diethyl-5-(8-morpholino-2-((quinolin-2-yloxy)methyl)imidazo[1,2-b]pyridazin-3-yl)pyridin-2-amine methane sulfonic acid] | 447 | 692 | – | – | – | – | – | –
c1ccc2ncc(OCCc3nc4c(N5CCOCC5)ccnn4c3-c3ccc(N4CCNCC4)nc3)cc2c1 [Cpd 14, 4-(3-(6-(Piperazin-1-yl)pyridin-3-yl)-2-(2-(quinolin-3-yloxy)ethyl)imidazo[1,2-b]pyridazin-8-yl)morpholine trifluoroacetic acid salt] | 776 | 955 | – | – | – | – | – | –
CS(=O)(=O)NC(=O)c1cccc2nc(/C=C/c3nc4c(N5CCOCC5)ccnn4c3-c3ccccc3)ccc12 [Cpd 122, (E)-N-(Methylsulfonyl)-2-(2-(8-morpholino-3-phenylimidazo[1,2-b]pyridazin-2-yl)vinyl)quinoline-5-carboxamide] | 7 | 4 | – | – | – | – | – | –
O=C(O)c1ccc(-c2c(/C=C/c3nc4ccccc4s3)nc3c(N4CCOCC4)ccnn23)cc1 [Cpd 90, (E)-4-(2-(2-(Benzo[d]thiazol-2-yl)vinyl)-8-morpholinoimidazo[1,2-b]pyridazin-3-yl)benzoic acid] | 17 | 19 | – | – | – | – | – | –
Oc1nc(-c2ccc(-c3c(C#Cc4ccc5ccccc5n4)nc4c(N5CCOCC5)ccnn34)cn2)no1 [Cpd 26, 3-(5-(8-Morpholino-2-(quinolin-2-ylethynyl)imidazo[1,2-b]pyridazin-3-yl)pyridin-2-yl)-1,2,4-oxadiazol-5-ol] | – | – | 37.8 | 0.26 | 150 | – | – | –
CN1CCN(c2ccc(-c3c(CN(C)c4ccc5ccccc5n4)nc4c(N5CCOCC5)ccnn34)cn2)CC1 [Cpd 15, N-Methyl-N-((3-(6-(4-methylpiperazin-1-yl)pyridin-3-yl)-8-morpholinoimidazo[1,2-b]pyridazin-2-yl)methyl)quinolin-2-amine trifluoroacetic acid salt] | 269 | 676 | – | – | – | – | – | –
O=C(O)c1ccc2ccc(/C=C/c3cn4nc(Cl)cc(N5CCOCC5)c4n3)nc2c1 [Cpd 94, 2-[(E)-2-(6-Chloro-8-morpholin-4-ylimidazo[1,2-b]pyridazin-2-yl)ethenyl]quinoline-7-carboxylic acid] | 82 | 53 | – | – | – | – | – | –
CS(=O)(=O)NC(=O)c1ccc(-c2c(CSc3ccc4ccccc4n3)nc3c(N4CCOCC4)ccnn23)cc1 [Cpd 120, N-(Methylsulfonyl)-4-(8-morpholino-2-((quinolin-2-ylthio)methyl)imidazo[1,2-b]pyridazin-3-yl)benzamide] | 2 | 3 | – | – | – | – | – | –
O=C(O)c1ccc(-c2c(C#Cc3ccc(C(F)(F)F)cn3)nc3c(N4CCOCC4)ccnn23)cc1 [Cpd 97, 4-(8-Morpholino-2-((5-(trifluoromethyl)pyridin-2-yl)ethynyl)imidazo[1,2-b]pyridazin-3-yl)benzoic acid] | 20 | 22 | – | – | – | – | – | –
